{"source": "ChEMBL document CHEMBL2380250", "about": "“Novel VEGFR-2 kinase inhibitors identified by the back-to-front approach” (Bioorg Med Chem Lett, 2013)", "key": {"[1]": {"target": "Epidermal growth factor receptor (Homo sapiens) (UniProt P00533)", "sequence (P00533 whole entry)": "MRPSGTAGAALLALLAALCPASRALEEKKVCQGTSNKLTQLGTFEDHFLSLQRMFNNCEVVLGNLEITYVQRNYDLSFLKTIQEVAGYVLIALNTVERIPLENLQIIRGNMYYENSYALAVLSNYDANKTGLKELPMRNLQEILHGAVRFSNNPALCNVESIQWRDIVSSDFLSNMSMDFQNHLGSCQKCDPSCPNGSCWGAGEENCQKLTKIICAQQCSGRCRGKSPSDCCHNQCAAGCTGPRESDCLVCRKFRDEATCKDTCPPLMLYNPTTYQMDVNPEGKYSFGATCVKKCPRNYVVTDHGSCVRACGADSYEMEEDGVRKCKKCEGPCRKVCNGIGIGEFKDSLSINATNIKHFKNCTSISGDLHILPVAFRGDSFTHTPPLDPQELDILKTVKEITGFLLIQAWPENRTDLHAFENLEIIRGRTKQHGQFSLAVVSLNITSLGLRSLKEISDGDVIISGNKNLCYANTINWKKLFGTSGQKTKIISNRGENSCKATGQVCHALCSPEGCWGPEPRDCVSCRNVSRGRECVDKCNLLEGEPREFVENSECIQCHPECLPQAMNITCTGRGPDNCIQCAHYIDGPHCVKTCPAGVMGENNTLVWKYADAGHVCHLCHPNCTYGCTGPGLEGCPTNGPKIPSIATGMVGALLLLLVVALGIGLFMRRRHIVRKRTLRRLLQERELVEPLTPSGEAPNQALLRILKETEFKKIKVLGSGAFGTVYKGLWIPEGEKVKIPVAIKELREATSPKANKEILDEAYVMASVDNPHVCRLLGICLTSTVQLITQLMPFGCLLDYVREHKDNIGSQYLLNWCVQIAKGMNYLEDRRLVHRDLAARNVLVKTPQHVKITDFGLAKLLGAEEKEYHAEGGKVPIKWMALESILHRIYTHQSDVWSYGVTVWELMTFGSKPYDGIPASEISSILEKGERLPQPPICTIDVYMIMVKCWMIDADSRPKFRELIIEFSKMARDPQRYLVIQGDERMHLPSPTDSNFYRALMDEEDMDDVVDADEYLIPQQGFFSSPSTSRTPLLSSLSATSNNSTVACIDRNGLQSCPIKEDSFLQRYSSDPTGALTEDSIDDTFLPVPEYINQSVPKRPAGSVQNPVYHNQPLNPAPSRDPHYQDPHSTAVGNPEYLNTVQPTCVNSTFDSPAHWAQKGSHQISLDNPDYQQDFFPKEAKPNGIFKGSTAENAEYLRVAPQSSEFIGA", "experiment": "Inhibition of human recombinant EGFR expressed in insect cells using Ulight-CAGAGAIETDKEYYTVKD as substrate at 1 uM after 15 to 60 mins by fluorescence assay"}, "[2]": {"target": "Platelet-derived growth factor receptor beta (Homo sapiens) (UniProt P09619)", "sequence (P09619 whole entry)": "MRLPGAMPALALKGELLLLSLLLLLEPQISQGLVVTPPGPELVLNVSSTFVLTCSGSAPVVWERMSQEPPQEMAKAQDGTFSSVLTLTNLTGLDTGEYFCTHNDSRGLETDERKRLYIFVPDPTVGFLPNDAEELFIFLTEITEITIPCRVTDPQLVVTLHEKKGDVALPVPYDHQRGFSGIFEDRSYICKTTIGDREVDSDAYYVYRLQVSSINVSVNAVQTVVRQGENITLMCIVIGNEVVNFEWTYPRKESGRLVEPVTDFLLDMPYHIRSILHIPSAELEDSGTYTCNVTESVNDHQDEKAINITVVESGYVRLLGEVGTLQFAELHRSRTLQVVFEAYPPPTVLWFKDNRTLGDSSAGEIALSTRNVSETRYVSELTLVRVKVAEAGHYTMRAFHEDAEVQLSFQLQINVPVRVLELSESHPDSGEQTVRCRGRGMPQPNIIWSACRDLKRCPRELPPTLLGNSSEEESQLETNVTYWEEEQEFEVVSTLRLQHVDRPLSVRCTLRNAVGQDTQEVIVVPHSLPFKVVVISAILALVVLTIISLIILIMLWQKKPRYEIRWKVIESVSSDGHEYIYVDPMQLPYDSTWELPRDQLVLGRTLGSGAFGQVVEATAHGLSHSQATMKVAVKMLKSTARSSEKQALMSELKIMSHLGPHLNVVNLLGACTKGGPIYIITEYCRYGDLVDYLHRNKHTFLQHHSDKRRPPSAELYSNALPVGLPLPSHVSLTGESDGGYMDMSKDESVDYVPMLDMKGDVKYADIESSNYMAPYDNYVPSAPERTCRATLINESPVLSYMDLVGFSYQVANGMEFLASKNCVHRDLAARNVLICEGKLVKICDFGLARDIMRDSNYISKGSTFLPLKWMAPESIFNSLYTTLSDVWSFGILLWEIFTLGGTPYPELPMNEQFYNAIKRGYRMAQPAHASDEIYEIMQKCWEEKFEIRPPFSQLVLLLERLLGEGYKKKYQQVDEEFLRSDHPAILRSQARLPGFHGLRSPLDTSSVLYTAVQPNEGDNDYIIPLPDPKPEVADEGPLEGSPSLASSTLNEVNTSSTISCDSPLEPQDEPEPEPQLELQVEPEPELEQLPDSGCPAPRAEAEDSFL", "experiment": "Inhibition of human recombinant PDGFR-beta expressed in insect cells using Ulight-Poly GAT[EAY(1:1:1)] as substrate at 1 uM after 15 to 60 mins by fluorescence assay"}, "[3]": {"system": "EA.hy 926", "experiment": "Antiangiogenic activity in VEGF-stimulated human EAhy926 cells assessed as inhibition of tube formation at 0.3 uM measured at 24 hrs", "format": "functional, cell-based"}, "[4]": {"system": "HeLa", "experiment": "Cytotoxicity against human HeLa cells assessed as growth inhibition by MTT assay", "format": "cell-based"}, "[5]": {"experiment": "Cytotoxicity against human H460 cells assessed as growth inhibition by MTT assay", "format": "cell-based", "details": "NCI-H460"}, "[6]": {"experiment": "Cytotoxicity against human EAhy926 cells assessed as growth inhibition by MTT assay", "format": "cell-based", "details": "EA.hy 926"}, "[7]": {"system": "MCF7", "experiment": "Cytotoxicity against human MCF7 cells assessed as growth inhibition by MTT assay", "format": "cell-based"}, "[8]": {"system": "HepG2", "experiment": "Cytotoxicity against human HepG2 cells assessed as growth inhibition by MTT assay", "format": "cell-based"}, "[9]": {"target": "Vascular endothelial growth factor receptor 2 (Homo sapiens, UniProt P35968)", "sequence (P35968 whole entry)": "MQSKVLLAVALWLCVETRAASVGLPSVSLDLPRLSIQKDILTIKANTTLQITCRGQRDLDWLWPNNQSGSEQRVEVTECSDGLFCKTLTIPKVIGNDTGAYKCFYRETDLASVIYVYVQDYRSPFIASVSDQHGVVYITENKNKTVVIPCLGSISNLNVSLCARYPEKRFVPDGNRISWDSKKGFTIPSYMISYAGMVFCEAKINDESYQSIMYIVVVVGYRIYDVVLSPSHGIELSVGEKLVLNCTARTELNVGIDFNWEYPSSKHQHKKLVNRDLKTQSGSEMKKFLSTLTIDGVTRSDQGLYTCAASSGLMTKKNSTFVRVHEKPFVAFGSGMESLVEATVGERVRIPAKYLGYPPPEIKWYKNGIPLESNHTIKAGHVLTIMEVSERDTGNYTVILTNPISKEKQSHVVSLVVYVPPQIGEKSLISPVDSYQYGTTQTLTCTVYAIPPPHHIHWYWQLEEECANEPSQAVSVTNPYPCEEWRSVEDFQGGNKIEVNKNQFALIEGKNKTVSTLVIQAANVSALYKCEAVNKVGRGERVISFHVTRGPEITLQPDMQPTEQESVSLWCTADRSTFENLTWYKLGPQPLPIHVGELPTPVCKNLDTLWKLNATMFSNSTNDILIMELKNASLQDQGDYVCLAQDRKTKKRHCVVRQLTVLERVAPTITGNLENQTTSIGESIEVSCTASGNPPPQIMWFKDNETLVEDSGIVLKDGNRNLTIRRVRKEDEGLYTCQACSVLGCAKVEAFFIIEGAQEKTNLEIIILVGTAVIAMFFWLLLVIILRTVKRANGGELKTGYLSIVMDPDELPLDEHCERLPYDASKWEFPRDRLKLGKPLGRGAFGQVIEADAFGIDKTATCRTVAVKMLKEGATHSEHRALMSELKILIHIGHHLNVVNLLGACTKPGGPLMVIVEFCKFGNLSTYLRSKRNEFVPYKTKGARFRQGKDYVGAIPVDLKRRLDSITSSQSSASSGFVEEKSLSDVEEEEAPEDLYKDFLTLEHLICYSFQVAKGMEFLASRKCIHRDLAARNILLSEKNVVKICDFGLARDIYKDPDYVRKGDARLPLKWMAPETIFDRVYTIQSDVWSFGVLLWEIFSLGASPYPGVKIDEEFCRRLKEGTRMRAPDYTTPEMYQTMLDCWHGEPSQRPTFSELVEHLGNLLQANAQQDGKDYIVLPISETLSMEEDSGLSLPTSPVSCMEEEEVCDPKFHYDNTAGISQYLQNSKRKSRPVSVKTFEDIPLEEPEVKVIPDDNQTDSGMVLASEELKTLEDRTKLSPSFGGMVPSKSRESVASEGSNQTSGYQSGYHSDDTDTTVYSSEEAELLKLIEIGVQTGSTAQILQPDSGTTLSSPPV", "experiment": "Inhibition of human recombinant VEGFR2 expressed in insect cells using Ulight-CAGAGAIETDKEYYTVKD as substrate after 15 to 60 mins by fluorescence assay"}, "[10]": {"experiment": "Ratio of cytotoxicity against human EAhy926 cells to antiangiogenic activity in VEGF-stimulated human EAhy926 cells", "format": "toxicity, cell-based"}, "[11]": {"system": "HUVEC", "experiment": "Cytotoxicity against HUVEC by MTT assay", "details": "Homo sapiens"}}, "note": "pIC50: −log10 of the molar value. Activity calls are given as the source filed them. The rule behind the calls is not given here."}
{"molecule": "O=C(NCc1cn(-c2ccc(S(=O)(=O)N3CCOCC3)cc2)nn1)Nc1cccc(CCl)c1", "values": [{"measurement": "inhibition", "setting": "[1]", "result": "Active"}, {"measurement": "inhibition", "setting": "[2]", "result": "inactive"}]}
{"molecule": "NS(=O)(=O)c1cccc(-n2cc(CNC(=O)Nc3cccc(CCl)c3)nn2)c1", "values": [{"measurement": "inhibition", "setting": "[1]", "result": "Active"}, {"measurement": "inhibition", "setting": "[2]", "result": "inactive"}]}
{"molecule": "O=C(NCc1cn(-c2ccc3[nH]ncc3c2)nn1)Nc1cccc(CCl)c1", "values": [{"measurement": "inhibition", "setting": "[1]", "result": "Active"}, {"measurement": "inhibition", "setting": "[2]", "result": "inactive"}]}
{"molecule": "NS(=O)(=O)c1ccc(-n2cc(CNC(=O)Nc3cccc(CCl)c3)nn2)cc1", "values": [{"measurement": "inhibition", "setting": "[1]", "result": "Active"}, {"measurement": "inhibition", "setting": "[2]", "result": "inactive"}]}
{"molecule": "COC(=O)c1ccc(-n2cc(CNC(=O)Nc3cccc(CCl)c3)nn2)cc1", "values": [{"measurement": "inhibition", "setting": "[1]", "result": "Active"}, {"measurement": "inhibition", "setting": "[2]", "result": "inactive"}]}
{"molecule": "O=C(NCc1cn(Cc2cc(=O)[nH]c3ccccc23)nn1)Nc1cccc(CCl)c1", "values": [{"measurement": "inhibition", "setting": "[1]", "result": "Active"}, {"measurement": "inhibition", "setting": "[2]", "result": "inactive"}]}
{"molecule": "O=C(NCc1cn(-c2ccc3ncsc3c2)nn1)Nc1cccc(CCl)c1", "values": [{"measurement": "inhibition", "setting": "[1]", "result": "Active"}, {"measurement": "inhibition", "setting": "[2]", "result": "inactive"}]}
{"molecule": "O=C(NCc1cn(-c2ccc3scnc3c2)nn1)Nc1cccc(CCl)c1", "values": [{"measurement": "inhibition", "setting": "[1]", "result": "Active"}, {"measurement": "inhibition", "setting": "[2]", "result": "inactive"}]}
{"molecule": "O=C(NCc1cn(-c2ccc3cn[nH]c3c2)nn1)Nc1cccc(CCl)c1", "values": [{"measurement": "inhibition", "setting": "[3]", "result": "Active"}, {"measurement": "pIC50", "setting": "[4]", "result": 4.48}, {"measurement": "pIC50", "setting": "[5]", "result": 4.15}, {"measurement": "pIC50", "setting": "[6]", "result": 5.40}, {"measurement": "inhibition", "setting": "[1]", "result": "Active"}, {"measurement": "pIC50", "setting": "[7]", "result": 4.68}, {"measurement": "pIC50", "setting": "[8]", "result": "< 4.00"}, {"measurement": "pIC50", "setting": "[9]", "result": 6.25}, {"measurement": "selectivity ratio", "setting": "[10]", "result": 13}, {"measurement": "inhibition", "setting": "[2]", "result": "inactive"}]}
{"molecule": "CNC(=O)c1cc(Oc2ccc(NC(=O)Nc3ccc(Cl)c(C(F)(F)F)c3)cc2)ccn1", "note": "[SORAFENIB]", "values": [{"measurement": "pIC50", "setting": "[11]", "result": 5.40}]}
{"molecule": "CC(=O)N1CCc2ccc(-n3cc(CNC(=O)Nc4cccc(CCl)c4)nn3)cc21", "values": [{"measurement": "inhibition", "setting": "[1]", "result": "Active"}, {"measurement": "inhibition", "setting": "[2]", "result": "inactive"}]}
{"molecule": "O=C(NCc1cn(CCN2C(=O)c3ccccc3C2=O)nn1)Nc1cccc(CCl)c1", "values": [{"measurement": "inhibition", "setting": "[1]", "result": "Active"}, {"measurement": "inhibition", "setting": "[2]", "result": "inactive"}]}
{"molecule": "C#CCNC(=O)Nc1cccc(CCl)c1", "values": [{"measurement": "inhibition", "setting": "[1]", "result": "Active"}, {"measurement": "inhibition", "setting": "[2]", "result": "inactive"}]}
